Results as given in patent publication US11446351B2, “Composition for treating one or more estrogen related diseases” (LIFEARC, priority 2018, dated 2022).
Counter-ions that a name gives are not always drawn. Where a SMILES comes first, the peptide text is derived from it. [ ]: non-standard residue; d: D form. dPhe(4-Cl) = N[C@H](Cc1ccc(Cl)cc1)C(=O)O; d2Nal = N[C@H](Cc1ccc2ccccc2c1)C(=O)O; d(hCit) = NC(=O)NCCCC[C@@H](N)C(=O)O; Lys(iPr) = CC(C)NCCCC[C@H](N)C(=O)O; d3Pal = N[C@H](Cc1cccnc1)C(=O)O

Test system: women
Test: Phase I study (Example 2): estradiol concentrations in serum
Type: in vivo, human
Method: Two formulations comprising either 45 mg or 30 mg Teverelix TFA and a placebo formulations, were prepared as described in example 1, i.e. the following formulations were prepared
The respective formulations were each injected subcutaneous (s.c.) to 24 subjects—12 per group i.e. 8 on active drug 4 on placebo per group. All subjects received a dose on either the active or placebo s.c. on day 3±1 of the menstrual cycle, i.e. • A single dosage of formulation B (45 mg Teverelix TFA) administered s.c. on day 3±1 of the menstrual cycle, • A single dosages of formulation C (30 mg Teverelix TFA) administered s.c. on day 3±1 of the menstrual cycle, and • A single dosage of formulation B placebo or formulation C placebo administered s.c. on day 3±1 of the menstrual cycle.
The concentration of Teverelix TFA, and Estradiol was measured over a period of 63 days. Additionally, the effect on Teverelix TFA on two bone markers was measured.
The mean estradiol concentration in the respective subjects was measured as described in example 1.

Q: Which results are given for `CC(=O)N[C@H](Cc1ccc2ccccc2c1)C(=O)N[C@H](Cc1ccc(Cl)cc1)C(=O)N[C@H](Cc1cccnc1)C(=O)N[C@@H](CO)C(=O)N[C@@H](Cc1ccc(O)cc1)C(=O)N[C@H](CCCCNC(N)=O)C(=O)N[C@@H](CC(C)C)C(=O)N[C@@H](CCCCNC(C)C)C(=O)N1CCC[C@H]1C(=O)N[C@H](C)C(N)=O` [Teverelix TFA, N-Ac-d-Nal^1,d-pCl-Phe^2,d-Pal^3,d-(Hci)^6,Lys(iPr)^8,d-Ala^10 trifluoroacetate] (Ac-[d2Nal][dPhe(4-Cl)][d3Pal]SY[d(hCit)]L[Lys(iPr)]P[dA]-NH2; C-terminus assumed)?
A: Mean Estradiol concentration in serum (30 mg dosage, day 0 (baseline)): 27.7 ng/L; Mean Estradiol concentration in serum (30 mg dosage, day 0.25): 16.1 ng/L; Mean Estradiol concentration in serum (30 mg dosage, day 0.5): 13.8 ng/L; Mean Estradiol concentration in serum (30 mg dosage, day 1): 12.3 ng/L; Mean Estradiol concentration in serum (30 mg dosage, day 2 (nadir)): 11.2 ng/L; Mean Estradiol concentration in serum (30 mg dosage, day 3): 13.7 ng/L; Mean Estradiol concentration in serum (30 mg dosage, day 4): 19.4 ng/L; Mean Estradiol concentration in serum (30 mg dosage, day 5): 22.6 ng/L; Mean Estradiol concentration in serum (30 mg dosage, day 6): 24.4 ng/L; Mean Estradiol concentration in serum (30 mg dosage, day 7): 31.0 ng/L; Mean Estradiol concentration in serum (30 mg dosage, day 9): 50.2 ng/L; Mean Estradiol concentration in serum (30 mg dosage, day 11): 46.5 ng/L; Mean Estradiol concentration in serum (30 mg dosage, day 13): 59.9 ng/L; Mean Estradiol concentration in serum (30 mg dosage, day 15): 36.3 ng/L; Mean Estradiol concentration in serum (30 mg dosage, day 17): 38.7 ng/L; Mean Estradiol concentration in serum (30 mg dosage, day 19): 51.4 ng/L; Mean Estradiol concentration in serum (30 mg dosage, day 21): 64.5 ng/L; Mean Estradiol concentration in serum (30 mg dosage, day 28): 67.4 ng/L; Mean Estradiol concentration in serum (30 mg dosage, day 35): 60.7 ng/L; Mean Estradiol concentration in serum (30 mg dosage, day 42): 58.6 ng/L; Mean Estradiol concentration in serum (30 mg dosage, day 49): 60.5. ng/L; Mean Estradiol concentration in serum (30 mg dosage, day 56): 105.1 ng/L; Mean Estradiol concentration in serum (30 mg dosage, day 63): 90.7 ng/L; mean estradiol level over the prolonged period (30 mg dose): 40.5 pg/mL; day on which estradiol levels returned to baseline (30 mg group): ≤ 8 days; women who ovulated during the study period (based on peak estradiol levels) (30 mg group): one of the 8; Mean Estradiol concentration in serum (45 mg dosage, day 0 (baseline)): 21.5 ng/L; Mean Estradiol concentration in serum (45 mg dosage, day 0.25): 16.3 ng/L; Mean Estradiol concentration in serum (45 mg dosage, day 0.5): 11.5 ng/L; Mean Estradiol concentration in serum (45 mg dosage, day 1): 8.4 ng/L; Mean Estradiol concentration in serum (45 mg dosage, day 2 (nadir)): 7.5 ng/L; Mean Estradiol concentration in serum (45 mg dosage, day 3): 11.4 ng/L; Mean Estradiol concentration in serum (45 mg dosage, day 4): 12.3 ng/L; Mean Estradiol concentration in serum (45 mg dosage, day 5): 13.3 ng/L; Mean Estradiol concentration in serum (45 mg dosage, day 6): 17.5 ng/L; Mean Estradiol concentration in serum (45 mg dosage, day 7): 17.8 ng/L; Mean Estradiol concentration in serum (45 mg dosage, day 9): 22.6 ng/L; Mean Estradiol concentration in serum (45 mg dosage, day 11): 36.4 ng/L; Mean Estradiol concentration in serum (45 mg dosage, day 13): 54.9 ng/L; Mean Estradiol concentration in serum (45 mg dosage, day 15): 91.6 ng/L; Mean Estradiol concentration in serum (45 mg dosage, day 17): 105.9 ng/L; Mean Estradiol concentration in serum (45 mg dosage, day 19): 115.1 ng/L; Mean Estradiol concentration in serum (45 mg dosage, day 21): 126.1 ng/L; Mean Estradiol concentration in serum (45 mg dosage, day 28): 80.9 ng/L; Mean Estradiol concentration in serum (45 mg dosage, day 35): 41.6 ng/L; Mean Estradiol concentration in serum (45 mg dosage, day 42): 67.4 ng/L; Mean Estradiol concentration in serum (45 mg dosage, day 49): 92.4 ng/L; Mean Estradiol concentration in serum (45 mg dosage, day 56): 104.9 ng/L; Mean Estradiol concentration in serum (45 mg dosage, day 63): 47.1 ng/L; mean estradiol level over the prolonged period (45 mg dose): 49.0 pg/mL; day on which estradiol levels returned to baseline (45 mg group): ≤ 9 days; women who ovulated during the study period (based on peak estradiol levels) (45 mg group): 5 of the 8; Mean Estradiol concentration in serum (30 + 45 mg groups, day 0 (baseline)): 24.6 ng/L; Mean Estradiol concentration in serum (30 + 45 mg groups, day 0.25): 16.2 ng/L; Mean Estradiol concentration in serum (30 + 45 mg groups, day 0.5): 12.7 ng/L; Mean Estradiol concentration in serum (30 + 45 mg groups, day 1): 10.4 ng/L; Mean Estradiol concentration in serum (30 + 45 mg groups, day 2): 9.4 ng/L; Mean Estradiol concentration in serum (30 + 45 mg groups, day 3): 12.6 ng/L; Mean Estradiol concentration in serum (30 + 45 mg groups, day 4): 15.8 ng/L; Mean Estradiol concentration in serum (30 + 45 mg groups, day 5): 17.9 ng/L; Mean Estradiol concentration in serum (30 + 45 mg groups, day 6): 20.9 ng/L; Mean Estradiol concentration in serum (30 + 45 mg groups, day 7): 24.4 ng/L; Mean Estradiol concentration in serum (30 + 45 mg groups, day 9): 36.4 ng/L; Mean Estradiol concentration in serum (30 + 45 mg groups, day 11): 41.8 ng/L; Mean Estradiol concentration in serum (30 + 45 mg groups, day 13): 57.2 ng/L; Mean Estradiol concentration in serum (30 + 45 mg groups, day 15): 64.0 ng/L; Mean Estradiol concentration in serum (30 + 45 mg groups, day 17): 72.3 ng/L; Mean Estradiol concentration in serum (30 + 45 mg groups, day 19): 83.3 ng/L; Mean Estradiol concentration in serum (30 + 45 mg groups, day 21): 95.3 ng/L; Mean Estradiol concentration in serum (30 + 45 mg groups, day 28): 74.1 ng/L; Mean Estradiol concentration in serum (30 + 45 mg groups, day 35): 51.1 ng/L; Mean Estradiol concentration in serum (30 + 45 mg groups, day 42): 63.0 ng/L; Mean Estradiol concentration in serum (30 + 45 mg groups, day 49): 76.4 ng/L; Mean Estradiol concentration in serum (30 + 45 mg groups, day 56): 105.0 ng/L; Mean Estradiol concentration in serum (30 + 45 mg groups, day 63): 68.9 ng/L
